Experimental data as given in BindingDB's records for doi:10.1021/jm070370z (Ligand Pharmaceuticals, 2007).

Target: T1, Glucocorticoid receptor (Homo sapiens, UniProt P04150)
T1 sequence (P04150 whole entry): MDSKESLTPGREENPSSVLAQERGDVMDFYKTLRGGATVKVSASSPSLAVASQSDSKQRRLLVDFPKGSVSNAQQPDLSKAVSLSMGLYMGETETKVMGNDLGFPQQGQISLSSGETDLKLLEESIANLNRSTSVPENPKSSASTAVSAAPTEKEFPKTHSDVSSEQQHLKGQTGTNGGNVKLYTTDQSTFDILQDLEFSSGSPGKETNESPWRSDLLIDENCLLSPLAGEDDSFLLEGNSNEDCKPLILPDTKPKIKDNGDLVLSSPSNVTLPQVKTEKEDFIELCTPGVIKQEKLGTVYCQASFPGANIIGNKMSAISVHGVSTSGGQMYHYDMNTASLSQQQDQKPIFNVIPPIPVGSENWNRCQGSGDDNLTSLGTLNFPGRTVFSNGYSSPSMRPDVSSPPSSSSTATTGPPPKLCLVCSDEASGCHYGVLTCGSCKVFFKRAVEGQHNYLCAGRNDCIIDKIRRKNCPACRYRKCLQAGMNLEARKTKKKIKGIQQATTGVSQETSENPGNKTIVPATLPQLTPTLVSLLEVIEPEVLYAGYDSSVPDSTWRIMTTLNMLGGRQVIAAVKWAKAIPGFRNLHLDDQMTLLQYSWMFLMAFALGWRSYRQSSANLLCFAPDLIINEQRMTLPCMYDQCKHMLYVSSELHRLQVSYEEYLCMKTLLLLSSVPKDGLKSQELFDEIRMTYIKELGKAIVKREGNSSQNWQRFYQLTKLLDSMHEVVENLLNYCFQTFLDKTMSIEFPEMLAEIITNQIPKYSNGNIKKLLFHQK
Experiment: GR-Mediated Antagonist Activity Assay and IL-6 Repression Assay
Settings: pH 7.5
Experimental: Potencies of compounds are reported as the concentration at which they reach half their antagonist (IC50) activity. IL-6 Repression Assay- The GR-mediated repression of IL-6 production in a human fibroblast (NHDFneo) cell line is measured with a modified ELISA assay.

EC50 [nM] | IC50 [nM] | Structure (SMILES)
1.4 | 0.6 | COc1c(O)ccc2c1-c1ccc3c(c1/C(=C/c1sccc1[C@@H](O)C(F)(F)F)O2)C(C)=CC(C)(C)N3 [(18Z)-12-methoxy-3,5,5-trimethyl-18-({3-[(1R)-2,2,2-trifluoro-1-hydroxyethyl]thiophen-2-yl}methylidene)-17-oxa-6-azatetracyclo[8.8.0.0^{2,7}.0^{11,16}]octadeca-1(10),2(7),3,8,11,13,15-heptaen-13-ol]
0.2 | 0.2 | COc1c(O)ccc2c1-c1ccc3c(c1/C(=C/c1sccc1[C@H](O)C(F)(F)F)O2)C(C)=CC(C)(C)N3 [(18Z)-12-methoxy-3,5,5-trimethyl-18-({3-[(1S)-2,2,2-trifluoro-1-hydroxyethyl]thiophen-2-yl}methylidene)-17-oxa-6-azatetracyclo[8.8.0.0^{2,7}.0^{11,16}]octadeca-1(10),2(7),3,8,11,13,15-heptaen-13-ol]
 | 0.9 | CCCCC(O)c1ccsc1/C=C1\Oc2ccc(O)c(OC)c2-c2ccc3c(c21)C(C)=CC(C)(C)N3 (stereo unspecified) [(18Z)-18-{[3-(1-hydroxypentyl)thiophen-2-yl]methylidene}-12-methoxy-3,5,5-trimethyl-17-oxa-6-azatetracyclo[8.8.0.0^{2,7}.0^{11,16}]octadeca-1(10),2(7),3,8,11,13,15-heptaen-13-ol]
 | 1 | COc1c(O)ccc2c1-c1ccc3c(c1C(=Cc1sccc1C(=O)C1CCCCC1)O2)C(C)=CC(C)(C)N3 [(18Z)-18-[(3-cyclohexanecarbonylthiophen-2-yl)methylidene]-12-methoxy-3,5,5-trimethyl-17-oxa-6-azatetracyclo[8.8.0.0^{2,7}.0^{11,16}]octadeca-1(10),2(7),3,8,11,13,15-heptaen-13-ol]
